Peptide text beside a SMILES is read from it. * marks the point of attachment. X1 = CC(=O)N[C@@H]1[C@@H](O)[C@H](O[C@@H]2O[C@H](CO)[C@@H](O[C@@H]3O[C@H](CO[C@H]4O[C@H](CO)[C@@H](O)[C@H](O)[C@@H]4O[C@@H]4O[C@H](CO)[C@@H](O[C@@H]5O[C@H](CO[C@]6(C(=O)O)C[C@H](O)[C@@H](NC(C)=O)[C@H]([C@H](O)[C@H](O)CO)O6)[C@H](O)[C@H](O)[C@H]5O)[C@H](O)[C@H]4NC(C)=O)[C@@H](O)[C@H](O[C@H]4O[C@H](CO)[C@@H](O)[C@H](O)[C@@H]4O[C@@H]4O[C@H](CO)[C@@H](O[C@@H]5O[C@H](CO[C@]6(C(=O)O)C[C@H](O)[C@@H](NC(C)=O)[C@H]([C@H](O)[C@H](O)CO)O6)[C@H](O)[C@H](O)[C@H]5O)[C@H](O)[C@H]4NC(C)=O)[C@@H]3O)[C@H](O)[C@H]2NC(C)=O)[C@@H](CO)O[C@H]1NC(=O)C*
Key:
C57BL/6JJcl mice = assay: Test Example 7: Oral Glucose Tolerance Test (OGTT); assay type: in vivo
Method: After 30 minutes, a glucose solution was orally administered at a dose of 1 mg/g. Blood was collected from the orbits before the glucose administration and 30 minutes, 60 minutes and 120 minutes after the glucose administration. Blood-sugar levels were measured using ACCU-CHEK Aviva (Roche Diagnostics).
After the oral administration of the glucose solution to the mice fasted overnight, blood was collected over time, and blood-sugar levels were measured.
The correlation between the oligosaccharide chain structure and the activity was studied in mouse OGTT.

[1] = tested on: db/db (BKS.Cg-+Lepr db/+Lepr db/Jcl) mice; assay: Test Example 8: effect of lowering blood-sugar levels in diabetes model mice; assay type: in vivo; settings: 9 nmol/kg intraperitoneal
Method: The oligosaccharide chain added GLP-1 peptide prepared in Example 2, 3, 4, 21 or 23 or the GLP-1 prepared in Comparative Example 1 in a PBS solution (9 nmol/10 ml) was intraperitoneally administered at a dose of 10 ml/kg to BKS.Cg−+Lepr^db/+Lepr^db/Jcl mice (10 week old, male). Blood was collected from the orbits before the compound administration and 30 minutes, 60 minutes, 120 minutes, 180 minutes and 300 minutes after the compound administration. Blood-sugar levels were measured using ACCU-CHEK Aviva (Roche Diagnostics).
The db/db (BKS.Cg−+Lepr^db/+Lepr^db/Jcl) mice serving as diabetes model mice have a mutation in a receptor of leptin which is anorexigenic/energy metabolism-accelerating hormone and develops conditions such as obesity or hyperglycemia.
Blood-sugar levels were measured over time, and their effects of lowering blood-sugar levels were compared with that of the GLP-1 without oligosaccharide chain addition of Comparative Example 1.

[2] = 9 nmol/kg intraperitoneal 30 minutes before glucose 1 mg/g oral

Structure (SMILES) | effect of suppressing rise in blood-sugar levels in OGTT (C57BL/6JJcl mice; 0.9 nmol/kg intraperitoneal) | effect of suppressing rise in blood-sugar levels in OGTT (C57BL/6JJcl mice; [2]) | activity of suppressing rise in blood-sugar levels in OGTT relative to GLP-1 (times) (C57BL/6JJcl mice; from doses giving equivalent effect, GLP-1 at 9 nmol/kg) | efficacy relative to 30Cys GLP-1-disialo and 36Cys GLP-1-disialo at the same dose in OGTT (C57BL/6JJcl mice; 0.9 nmol/kg intraperitoneal) | dose dependence of activity of suppressing rise in blood-sugar levels in OGTT (C57BL/6JJcl mice; doses 0.9 nmol/kg and 0.09 nmol/kg intraperitoneal) | effect of lowering blood-sugar levels in db/db mice ([1]; 10-week-old male mice) | durability of effect of lowering blood-sugar levels in db/db mice ([1]; up to 300 minutes)
CC[C@H](C)[C@H](NC(=O)[C@H](Cc1ccccc1)NC(=O)[C@H](CCC(=O)O)NC(=O)[C@H](CCCCN)NC(=O)[C@H](C)NC(=O)[C@H](C)NC(=O)[C@H](CCC(N)=O)NC(=O)CNC(=O)[C@H](CCC(=O)O)NC(=O)[C@H](CC(C)C)NC(=O)[C@H](Cc1ccc(O)cc1)NC(=O)[C@H](CSCC(=O)N[C@@H]1O[C@H](CO)[C@@H](O[C@@H]2O[C@H](CO)[C@@H](O[C@@H]3O[C@H](CO[C@H]4O[C@H](CO)[C@@H](O)[C@H](O)[C@@H]4O[C@@H]4O[C@H](CO)[C@@H](O[C@@H]5O[C@H](CO[C@]6(C(=O)O)C[C@H](O)[C@@H](NC(C)=O)[C@H]([C@H](O)[C@H](O)CO)O6)[C@H](O)[C@H](O)[C@H]5O)[C@H](O)[C@H]4NC(C)=O)[C@@H](O)[C@H](O[C@H]4O[C@H](CO)[C@@H](O)[C@H](O)[C@@H]4O[C@@H]4O[C@H](CO)[C@@H](O[C@@H]5O[C@H](CO[C@]6(C(=O)O)C[C@H](O)[C@@H](NC(C)=O)[C@H]([C@H](O)[C@H](O)CO)O6)[C@H](O)[C@H](O)[C@H]5O)[C@H](O)[C@H]4NC(C)=O)[C@@H]3O)[C@H](O)[C@H]2NC(C)=O)[C@H](O)[C@H]1NC(C)=O)NC(=O)[C@H](CO)NC(=O)[C@@H](NC(=O)[C@H](CC(=O)O)NC(=O)[C@H](CO)NC(=O)[C@@H](NC(=O)[C@H](Cc1ccccc1)NC(=O)[C@@H](NC(=O)CNC(=O)[C@H](CCC(=O)O)NC(=O)[C@H](C)NC(=O)[C@@H](N)Cc1c[nH]cn1)[C@@H](C)O)[C@@H](C)O)C(C)C)C(=O)N[C@@H](C)C(=O)N[C@@H](Cc1c[nH]c2ccccc12)C(=O)N[C@@H](CC(C)C)C(=O)N[C@H](C(=O)N[C@@H](CCCCN)C(=O)NCC(=O)N[C@@H](CSCC(=O)N[C@@H]1O[C@H](CO)[C@@H](O[C@@H]2O[C@H](CO)[C@@H](O[C@@H]3O[C@H](CO[C@H]4O[C@H](CO)[C@@H](O)[C@H](O)[C@@H]4O[C@@H]4O[C@H](CO)[C@@H](O[C@@H]5O[C@H](CO[C@]6(C(=O)O)C[C@H](O)[C@@H](NC(C)=O)[C@H]([C@H](O)[C@H](O)CO)O6)[C@H](O)[C@H](O)[C@H]5O)[C@H](O)[C@H]4NC(C)=O)[C@@H](O)[C@H](O[C@H]4O[C@H](CO)[C@@H](O)[C@H](O)[C@@H]4O[C@@H]4O[C@H](CO)[C@@H](O[C@@H]5O[C@H](CO[C@]6(C(=O)O)C[C@H](O)[C@@H](NC(C)=O)[C@H]([C@H](O)[C@H](O)CO)O6)[C@H](O)[C@H](O)[C@H]5O)[C@H](O)[C@H]4NC(C)=O)[C@@H]3O)[C@H](O)[C@H]2NC(C)=O)[C@H](O)[C@H]1NC(C)=O)C(=O)NCC(=O)O)C(C)C [Example 49, 18,36Cys GLP-1-disialo] | almost equivalent to that of the GLP-1 at a dose of 9 nmol/kg | effect almost equivalent to that of the 36Cys GLP-1-disialo | about 10 times |  |  |  | 
CC[C@H](C)[C@H](NC(=O)[C@H](Cc1ccccc1)NC(=O)[C@H](CCC(=O)O)NC(=O)[C@H](CSCC(=O)N[C@@H]1O[C@H](CO)[C@@H](O[C@@H]2O[C@H](CO)[C@@H](O[C@@H]3O[C@H](CO[C@H]4O[C@H](CO)[C@@H](O)[C@H](O)[C@@H]4O[C@@H]4O[C@H](CO)[C@@H](O[C@@H]5O[C@H](CO[C@]6(C(=O)O)C[C@H](O)[C@@H](NC(C)=O)[C@H]([C@H](O)[C@H](O)CO)O6)[C@H](O)[C@H](O)[C@H]5O)[C@H](O)[C@H]4NC(C)=O)[C@@H](O)[C@H](O[C@H]4O[C@H](CO)[C@@H](O)[C@H](O)[C@@H]4O[C@@H]4O[C@H](CO)[C@@H](O[C@@H]5O[C@H](CO[C@]6(C(=O)O)C[C@H](O)[C@@H](NC(C)=O)[C@H]([C@H](O)[C@H](O)CO)O6)[C@H](O)[C@H](O)[C@H]5O)[C@H](O)[C@H]4NC(C)=O)[C@@H]3O)[C@H](O)[C@H]2NC(C)=O)[C@H](O)[C@H]1NC(C)=O)NC(=O)[C@H](C)NC(=O)[C@H](C)NC(=O)[C@H](CCC(N)=O)NC(=O)CNC(=O)[C@H](CCC(=O)O)NC(=O)[C@H](CC(C)C)NC(=O)[C@H](Cc1ccc(O)cc1)NC(=O)[C@H](CO)NC(=O)[C@H](CO)NC(=O)[C@@H](NC(=O)[C@H](CC(=O)O)NC(=O)[C@H](CO)NC(=O)[C@@H](NC(=O)[C@H](Cc1ccccc1)NC(=O)[C@@H](NC(=O)CNC(=O)[C@H](CCC(=O)O)NC(=O)[C@H](C)NC(=O)[C@@H](N)Cc1c[nH]cn1)[C@@H](C)O)[C@@H](C)O)C(C)C)C(=O)N[C@@H](C)C(=O)N[C@@H](Cc1c[nH]c2ccccc12)C(=O)N[C@@H](CC(C)C)C(=O)N[C@H](C(=O)N[C@@H](CCCCN)C(=O)NCC(=O)N[C@@H](CCCNC(=N)N)C(=O)NCC(=O)O)C(C)C [Example 3, 26Cys GLP-1-disialo] |  | strong effect of suppressing rise in blood-sugar levels |  | about ½ | dose-dependent activity of suppressing rise in blood-sugar levels | strong effect of lowering blood-sugar levels | effects of lowering blood-sugar levels were slightly weakened over time
CC[C@H](C)[C@H](NC(=O)[C@H](Cc1ccccc1)NC(=O)[C@H](CCC(=O)O)NC(=O)[C@H](CCCCN)NC(=O)[C@H](C)NC(=O)[C@H](C)NC(=O)[C@H](CCC(N)=O)NC(=O)CNC(=O)[C@H](CCC(=O)O)NC(=O)[C@H](CC(C)C)NC(=O)[C@H](Cc1ccc(O)cc1)NC(=O)[C@H](CSCC(=O)N[C@@H]1O[C@H](CO)[C@@H](O[C@@H]2O[C@H](CO)[C@@H](O[C@@H]3O[C@H](CO[C@H]4O[C@H](CO)[C@@H](O)[C@H](O)[C@@H]4O[C@@H]4O[C@H](CO)[C@@H](O[C@@H]5O[C@H](CO[C@]6(C(=O)O)C[C@H](O)[C@@H](NC(C)=O)[C@H]([C@H](O)[C@H](O)CO)O6)[C@H](O)[C@H](O)[C@H]5O)[C@H](O)[C@H]4NC(C)=O)[C@@H](O)[C@H](O[C@H]4O[C@H](CO)[C@@H](O)[C@H](O)[C@@H]4O[C@@H]4O[C@H](CO)[C@@H](O[C@@H]5O[C@H](CO[C@]6(C(=O)O)C[C@H](O)[C@@H](NC(C)=O)[C@H]([C@H](O)[C@H](O)CO)O6)[C@H](O)[C@H](O)[C@H]5O)[C@H](O)[C@H]4NC(C)=O)[C@@H]3O)[C@H](O)[C@H]2NC(C)=O)[C@H](O)[C@H]1NC(C)=O)NC(=O)[C@H](CO)NC(=O)[C@@H](NC(=O)[C@H](CC(=O)O)NC(=O)[C@H](CO)NC(=O)[C@@H](NC(=O)[C@H](Cc1ccccc1)NC(=O)[C@@H](NC(=O)CNC(=O)[C@H](CCC(=O)O)NC(=O)[C@H](C)NC(=O)[C@@H](N)Cc1c[nH]cn1)[C@@H](C)O)[C@@H](C)O)C(C)C)C(=O)N[C@@H](C)C(=O)N[C@@H](Cc1c[nH]c2ccccc12)C(=O)N[C@@H](CC(C)C)C(=O)N[C@H](C(=O)N[C@@H](CCCCN)C(=O)NCC(=O)N[C@@H](CCCNC(=N)N)C(=O)NCC(=O)O)C(C)C [Example 1, 18Cys GLP-1-disialo] (H-HAEGTFTSDVSC(X1)YLEGQAAKEFIAWLVKGRG-OH) |  | strong effect of suppressing rise in blood-sugar levels |  |  |  |  | 
CC[C@H](C)[C@H](NC(=O)[C@H](Cc1ccccc1)NC(=O)[C@H](CCC(=O)O)NC(=O)[C@H](CCCCN)NC(=O)[C@H](C)NC(=O)[C@H](C)NC(=O)[C@H](CCC(N)=O)NC(=O)CNC(=O)[C@H](CCC(=O)O)NC(=O)[C@H](CSCC(=O)N[C@@H]1O[C@H](CO)[C@@H](O[C@@H]2O[C@H](CO)[C@@H](O[C@@H]3O[C@H](CO[C@H]4O[C@H](CO)[C@@H](O)[C@H](O)[C@@H]4O[C@@H]4O[C@H](CO)[C@@H](O[C@@H]5O[C@H](CO[C@]6(C(=O)O)C[C@H](O)[C@@H](NC(C)=O)[C@H]([C@H](O)[C@H](O)CO)O6)[C@H](O)[C@H](O)[C@H]5O)[C@H](O)[C@H]4NC(C)=O)[C@@H](O)[C@H](O[C@H]4O[C@H](CO)[C@@H](O)[C@H](O)[C@@H]4O[C@@H]4O[C@H](CO)[C@@H](O[C@@H]5O[C@H](CO[C@]6(C(=O)O)C[C@H](O)[C@@H](NC(C)=O)[C@H]([C@H](O)[C@H](O)CO)O6)[C@H](O)[C@H](O)[C@H]5O)[C@H](O)[C@H]4NC(C)=O)[C@@H]3O)[C@H](O)[C@H]2NC(C)=O)[C@H](O)[C@H]1NC(C)=O)NC(=O)[C@H](Cc1ccc(O)cc1)NC(=O)[C@H](CO)NC(=O)[C@H](CO)NC(=O)[C@@H](NC(=O)[C@H](CC(=O)O)NC(=O)[C@H](CO)NC(=O)[C@@H](NC(=O)[C@H](Cc1ccccc1)NC(=O)[C@@H](NC(=O)CNC(=O)[C@H](CCC(=O)O)NC(=O)[C@H](C)NC(=O)[C@@H](N)Cc1c[nH]cn1)[C@@H](C)O)[C@@H](C)O)C(C)C)C(=O)N[C@@H](C)C(=O)N[C@@H](Cc1c[nH]c2ccccc12)C(=O)N[C@@H](CC(C)C)C(=O)N[C@H](C(=O)N[C@@H](CCCCN)C(=O)NCC(=O)N[C@@H](CCCNC(=N)N)C(=O)NCC(=O)O)C(C)C [Example 16, 20Cys GLP-1-disialo] (H-HAEGTFTSDVSSYC(X1)EGQAAKEFIAWLVKGRG-OH) |  | strong effect of suppressing rise in blood-sugar levels |  |  |  |  | 

Source: patent US7985731B2, “Sugar chain added GLP-1 peptide” (Otsuka Chemical Holdings Co., Ltd., priority 2007, dated 2011)
